Source: publication PMC12073402, “A Selective MAP3K1 Inhibitor Facilitates Discovery of NPM1 as a Member of the Network” (Molecules, 2025)
Like-named read-outs stand apart in the source and are kept apart here.

Key:
HCT116 MAP3K1 WT cells = experiment: PrestoBlue growth inhibition assay; type: cell-based; settings: Homo sapiens, HCT-116, 72 h
Source text: (§1) To investigate the target dependency of 51-106 activity, MAP3K1 was genetically knocked out (KO) in HCT116 cells using CRISPR-Cas9 technology (Gene Editing and Screening Core Facility, Memorial Sloan Kettering Cancer Center). The HCT116 cell line was chosen because it is predominantly diploid, allowing for a more predictable outcome when utilizing CRISPR technology compared with cell lines with aneuploidy. […] Western blot analysis confirmed the absence of MAP3K1 protein expression in KO cells compared to non-targeting control (NTC) MAP3K1 wild-type (WT) cells (Figure 3C). The MAP3K1 primary antibody used binds to residues 50 and 100 of the N-terminus of MAP3K1. HCT116 MAP3K1 WT and MAP3K1 KO cells were subjected to PrestoBlue growth inhibition assay with 51-106 treatment. […] Further optimization of 51-106 and/or the use of emerging methods such as DNA-encoded library based screens followed by machine learning (DEL-ML) along with a comprehensive suite of biophysical and biochemical screens should be employed to develop a MAP3K1 chemical probe.
(§2) A suspension of in 90 μL media was plated per well in clear, flat-bottomed, sterile, 96-well tissue culture plates (Cat# 12-565-438; Fisher Scientific, Waltham, MA, USA). The cells were allowed to adhere overnight in a humidified 5% CO2 incubator at 37 °C. Drug working solutions were prepared from 10 mM DMSO (Cat# BP231; Fisher Scientific) stocks. Drugs were added in 6 dilutions in triplicates. Ten μL of the working solution was added to each well in the plate to yield a final concentration of 20—0.63 μM drug in 1% DMSO. Blank DMSO controls were also included. […] Fluorescence (Ex 560, Em 590) was measured on a plate reader (Spectramax M5e; Molecular Devices) to determine T0. […] Fluorescence was measured on a plate reader. Wells with 1% DMSO were used to determine T100. % Growth was calculated as [(Fluorescence read of a well − T0)/(T100 − T0)] ∗ 100. The data were plotted using Prism V 9.1.0, and the IC50 values were determined using a four-parameter Logistic Curve Fitting function.

HCT116 MAP3K1 KO cells = experiment: PrestoBlue growth inhibition assay; type: cell-based
Source text: as §1, §2

[1] = Pharmacokinetic studies, oral and intravenous dosing; type: in vivo, CD1 mice; settings: for MRT inf: read-out: MRT 0-∞
Description: Next, we conducted pharmacokinetic (PK) studies with 51-106. Briefly, mice were dosed either intravenously (IV) or orally with 10 mg/kg of 51-106 and sampled at 0.083, 0.25, 0.5, 1, 2, 4, 8, and 24 h. […] This was accomplished by strategic placement of fluorine atoms at metabolically vulnerable sites on the molecule.
Pharmacokinetic studies (10 mg/kg oral and intravenous dosing) were performed following previously reported methods. Sample analysis was performed by liquid chromatography–tandem mass spectrometry (SCIEX QTRAP 4000 LC-MS/MS System). The pharmacokinetic parameters were determined using non-compartmental analyses module of WinNonlin 1.5.

[2] = system: NPM1 T199 phosphorylation; experiment: Western blot of NPM1 T199 phosphorylation in PANC-1 cells; type: cell-based; settings: 2 h
Source text: We further investigated changes in NPM1 phosphorylation in our dataset. Of the NPM1 phosphorylation sites quantified, four sites had significant dose-dependent decreases upon 51-106 treatment: S137, T199, S222, and S227. Only one of these phosphorylation sites, T199, has a commercially available antibody. Importantly, T199 phosphorylation plays an essential role in NPM1 function, as it is required for localization of NPM1 to sites of DNA double-stranded breaks, where it colocalizes with other DNA repair proteins such as γH2AX and RAD51 [38].
Cells were washed with cold 1× PBS and lysed in Radioimmunoprecipitation assay (RIPA) buffer (Cat# 89901; Thermo Fisher Scientific), sodium orthovanadate (Na3VO4) (Cat# 567540-5GM; Sigma-Aldrich; St. Louis, MO, USA), sodium fluoride (NaF) (Cat# 201154-5G, >99% purity; Sigma-Aldrich), β-glycerophosphate (Cat# G9422-10G; Sigma-Aldrich), and 1 mM phenylmethylsulfonyl fluoride (Cat# 10837091001; Sigma Aldrich). The samples were incubated on ice for 30 min, vortexed at 10 min intervals, and centrifuged at 14,000× g for 10 min at 4 °C. The supernatant was collected, and protein was quantified using the BCA Protein Assay kit (Cat# 23225; Thermo Fisher Scientific). […]

[3] = mouse, in vivo, CD1 mice, 10 mg/kg, Intravenous
[4] = mouse, in vivo, CD1 mice, 10 mg/kg, Oral

For `Cn1cc(-c2cnc3ccc(NC(=O)Nc4ccc(F)c(C(F)(F)F)c4)cc3n2)cn1` [51-106, 1-(4-Fluoro-3-(trifluoromethyl)phenyl)-3-(3-(1-methyl-1H-pyrazol-4-yl)quinoxalin-6-yl)urea], the IC50 (HCT116 MAP3K1 WT cells) was about 1800 nM, the “increase in IC50 in MAP3K1 KO cells” value (HCT116 MAP3K1 KO cells; HCT116 MAP3K1 KO versus WT) was 5 fold and the IC50 (HCT116 MAP3K1 KO cells; Homo sapiens, HCT-116, 72 h, HCT116 MAP3K1 KO, 72 h, PrestoBlue) was about 8.9 µM. For the same compound, the “improvement of oral bioavailability” value ([1]; 51-106 compared to analog 84) was ~ 3.5 fold, the “improvement of t1/2 in mice” value ([1]; 51-106 compared to analog 84) was ~ 1.4 fold and the bioavailability ([1]; CD1, mouse, in vivo, po, 10 mg/kg, CD1 mice, 10 mg/kg, Oral, read-out: Bioavailability (%F)) was 62.3%. The “Bioavailability (%F)” value ([1]; CD1 mice, 10 mg/kg, Oral) was about 62%, the AUC(0-inf) [1, 3] was 9120 ± 755 ng·h/mL and the AUC(0-t) [1, 3] was 8960 ± 812 ng·h/mL. The Cmax [1, 3] was 4380 ± 447 ng/mL, the half-life [1, 3] was 102 ± 18 min and the MRT inf [1, 3] was 2.2 ± 0.3 h. It also gave a Vd ([1]; mouse, in vivo, CD1 mice, 10 mg/kg, Intravenous, read-out: Vss) of 2.5 ± 0.3 L/kg, an AUC(0-inf) [1, 4] of 5680 ± 1930 ng·h/mL and an AUC(0-t) [1, 4] of 4580 ± 2500 ng·h/mL. For the same compound, the Cmax [1, 4] was 689 ± 190 ng/mL, the Tmax [1, 4] was 2.7 h and the half-life [1, 4] was 210 min. The MRT inf [1, 4] was 6.4 ± 1.5 h and the “NPM1 T199 phosphorylation (Western blot)” value [2] was “Decreased phosphorylation in NPM1 T199”.
